The record followed here is patent US20260347338A1, “PYRIMIDINE/PYRIDINE DERIVATIVES OR SALTS THEREOF AND PHARMACEUTICAL COMPOSITIONS COMPRISING THE SAME” (YUHAN CORPORATION, priority 2023, published 2026).

The experiment deals with T1, human recombinant HPK1 (Homo sapiens, UniProt Q92918).
T1 construct: purchased BPS Bioscience
In words: Inhibitory activity against human recombinant HPK1 (TR-FRET). The experiment is classed as biochemical. The conditions noted are these: ULight-p70S6K peptide, ATP at Km, room temperature, 1 hour, 0.32 to 1000 nM compound. The procedure:
Test Example: Evaluation of Inhibitory Activity Against Human Recombinant HPK1
The inhibitory activity against human recombinant HPK1 was evaluated using the Time-Resolved Fluorescence Resonance Energy Transfer (TR-FRET) technology of Perkin-Elmer. The test compound was prepared as a 20 mM stock solution with dimethyl sulfoxide (DMSO), serially diluted in a buffer solution, and used at final compound concentrations of 0.32 to 1000 nM. The evaluation of inhibitory activity was carried out at room temperature, using recombinant human HPK1 (BPS Bioscience). Briefly, recombinant human HPK1, serially diluted each test compound, ULight-p70S6K peptide substrate (PerkinElmer), and ATP at each concentration (Km and final concentration) were added to a kinase buffer solution (50 mM HEPES pH 7.4, 10 mM MgCl2, 1 mM EGTA, 3 mM MnCl2, 2 mM DTT, and 0.01% Tween-20). The resulting mixture was added to each well of a 384-well plate (Optiplate™ 384, white, PerkinElmer). The enzyme reaction was carried out at room temperature for 1 hour. After the reaction was suspended by adding 4 μL of a stop solution (10 mM EDTA) thereto, the mixture was stirred for 1 minute and then a detection solution containing Europium-labeled anti-phosphopeptide antibody (final concentration: 2 nM, PerkinElmer) was added thereto. The signals of TR-FRET at excitation wavelength (320 nm) and emission wavelength (665 nm) were detected using a microplate reader (Envision Multilabel Reader, Perkin-Elmer). Inhibition by the test compound was measured as % inhibition in the signals, compared to the control group treated with DMSO only. The IC50 value of each compound was calculated using the GraphPad Prism program (GraphPad Software, Inc., San Diego, CA, USA). The IC50 values of test compounds for inhibitory activity against HPK1 were classified as follows: • A: IC50≤10 nM • B: 10 nM<IC50≤50 nM • C: 50 nM<IC50≤100 nM • D: IC50>100 nM

T1 sequence (Q92918 whole entry): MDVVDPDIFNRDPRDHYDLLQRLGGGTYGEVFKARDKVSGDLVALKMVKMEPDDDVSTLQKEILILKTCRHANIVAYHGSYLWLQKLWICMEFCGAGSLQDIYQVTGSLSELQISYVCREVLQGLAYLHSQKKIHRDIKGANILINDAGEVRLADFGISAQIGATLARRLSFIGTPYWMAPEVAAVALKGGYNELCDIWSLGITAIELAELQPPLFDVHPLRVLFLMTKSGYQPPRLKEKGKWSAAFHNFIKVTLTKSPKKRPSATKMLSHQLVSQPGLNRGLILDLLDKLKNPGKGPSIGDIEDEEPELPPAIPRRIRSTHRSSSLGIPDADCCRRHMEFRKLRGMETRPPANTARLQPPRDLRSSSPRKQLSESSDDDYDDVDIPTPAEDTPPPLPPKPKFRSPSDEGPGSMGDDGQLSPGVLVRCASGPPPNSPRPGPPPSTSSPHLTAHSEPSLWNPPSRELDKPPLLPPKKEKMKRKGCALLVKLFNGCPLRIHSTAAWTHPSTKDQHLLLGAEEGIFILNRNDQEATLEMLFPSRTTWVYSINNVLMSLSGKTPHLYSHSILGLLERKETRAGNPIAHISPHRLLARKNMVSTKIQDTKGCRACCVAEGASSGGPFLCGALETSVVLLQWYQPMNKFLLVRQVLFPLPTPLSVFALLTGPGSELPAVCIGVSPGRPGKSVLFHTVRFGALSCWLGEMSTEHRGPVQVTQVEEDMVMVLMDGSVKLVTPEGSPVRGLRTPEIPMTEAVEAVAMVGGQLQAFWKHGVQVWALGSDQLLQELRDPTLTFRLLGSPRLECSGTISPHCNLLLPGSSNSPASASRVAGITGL

In general, IC50 refers to the point on the concentration scale where inhibition reaches its midpoint. Regarding `COc1ccc(F)c(F)c1-c1nccc(Nc2cc(N3CCC[C@H](O)C3)c(-c3cnn(C4CCOCC4)c3)cn2)n1` [Example 24, (S)-1-(2-((2-(2,3-difluoro-6-methoxyphenyl)pyrimidin-4-yl)amino)-5-(1-(tetrahydro-2H-pyran-4-yl)-1H-pyrazol-4-yl)pyridin-4-yl)piperidin-3-ol], the IC50 was not above 10 nM.

As for `CCOc1cccc(F)c1-c1nccc(Nc2cc(N3CCC[C@H](O)C3)c(-c3cnn(C4CCOCC4)c3)cn2)n1` [Example 25, (S)-1-(2-((2-(2-ethoxy-6-fluorophenyl)pyrimidin-4-yl)amino)-5-(1-(tetrahydro-2H-pyran-4-yl)-1H-pyrazol-4-yl)pyridin-4-yl)piperidin-3-ol], the IC50 lay within 10 to 50 nM.

On to `O[C@H]1CCCN(c2cc(Nc3ccnc(-c4ccn5ncnc5c4)n3)ncc2-c2cnn(C3CCOCC3)c2)C1` [Example 26, (S)-1-(2-((2-([1,2,4]triazolo[1,5-a]pyridin-7-yl)pyrimidin-4-yl)amino)-5-(1-(tetrahydro-2H-pyran-4-yl)-1H-pyrazol-4-yl)pyridin-4-yl)piperidin-3-ol], for which the half-maximal inhibitory concentration (IC50) lay within 50 to 100 nM.

As for `O[C@H]1CCCN(c2cc(Nc3ccnc(-c4cnn5ccccc45)n3)ncc2-c2cnn(C3CCOCC3)c2)C1` [Example 27, (S)-1-(2-((2-(pyrazolo[1,5-a]pyridin-3-yl)pyrimidin-4-yl)amino)-5-(1-(tetrahydro-2H-pyran-4-yl)-1H-pyrazol-4-yl)pyridin-4-yl)piperidin-3-ol], the half-inhibitory concentration (IC50) fell in the range of 10 to 50 nM.

With `O[C@H]1CCCN(c2cc(Nc3ccnc(-c4ccc5nccnc5c4)n3)ncc2-c2cnn(C3CCOCC3)c2)C1` [Example 28, (S)-1-(2-((2-(quinoxalin-6-yl)pyrimidin-4-yl)amino)-5-(1-(tetrahydro-2H-pyran-4-yl)-1H-pyrazol-4-yl)pyridin-4-yl)piperidin-3-ol], the IC50 was 10 to 50 nM.

For `O[C@H]1CCCN(c2cc(Nc3ccnc(-c4ccc5cccnc5c4F)n3)ncc2-c2cnn(C3CCOCC3)c2)C1` [Example 29, (S)-1-(2-((2-(8-fluoroquinolin-7-yl)pyrimidin-4-yl)amino)-5-(1-(tetrahydro-2H-pyran-4-yl)-1H-pyrazol-4-yl)pyridin-4-yl)piperidin-3-ol], the IC50 was not above 10 nM.

For `COc1cccc(F)c1-c1nccc(Nc2cc(N3CCC[C@H](O)C3)c(-c3ccc(CN4CCN(C)CC4)nc3)cn2)n1` [Example 30, (S)-1-(6-((2-(2-fluoro-6-methoxyphenyl)pyrimidin-4-yl)amino)-6′-((4-methylpiperazin-1-yl)methyl)-[3,3′-bipyridin]-4-yl)piperidin-3-ol], the IC50 lay within 10 to 50 nM.

For `COc1cccc(F)c1-c1nccc(Nc2cc(N3CCC[C@H](O)C3)c(-c3ccc(C4CCOCC4)nc3)cn2)n1` [Example 31, (S)-1-(6-((2-(2-fluoro-6-methoxyphenyl)pyrimidin-4-yl)amino)-6′-(tetrahydro-2H-pyran-4-yl)-[3,3′-bipyridin]-4-yl)piperidin-3-ol], the IC50 is not above 10 nM.

In the case of `COc1cccc(F)c1-c1nccc(Nc2cc(N3CCC[C@H](O)C3)c(-c3ccc(CN4CCOCC4)nc3)cn2)n1` [Example 32, (S)-1-(6-((2-(2-fluoro-6-methoxyphenyl)pyrimidin-4-yl)amino)-6′-(morpholinomethyl)-[3,3′-bipyridin]-4-yl)piperidin-3-ol], the half-inhibitory concentration (IC50) is 10 to 50 nM.

In the case of `COc1cccc(F)c1-c1nccc(Nc2cc(N3CCC[C@H](O)C3)c(-c3ccc(CN4CCC(O)CC4)nc3)cn2)n1` [Example 33, (S)-1-(6-((2-(2-fluoro-6-methoxyphenyl)pyrimidin-4-yl)amino)-6′-((4-hydroxypiperidin-1-yl)methyl)-[3,3′-bipyridin]-4-yl)piperidin-3-ol], the 50% inhibitory concentration (IC50) was in the range of 10 to 50 nM.

On to `COc1cccc(F)c1-c1nccc(Nc2cc(N3CCCC(C(N)=O)C3)c(-c3cnn(C4CCOCC4)c3)cn2)n1` (centres unmarked) [Example 34, 1-(2-((2-(2-fluoro-6-methoxyphenyl)pyrimidin-4-yl)amino)-5-(1-(tetrahydro-2H-pyran-4-yl)-1H-pyrazol-4-yl)pyridin-4-yl)piperidin-3-carboxamide], for which the IC50 fell in the range of 10 to 50 nM.
